These results are taken from patent publication US9434711B2 (Janssen Pharmaceutica, NV, priority 2007, dated 2016).

Molecules are shown by their SMILES.

The experiment has as its target canine TRPM8 (Canis lupus familiaris, UniProt Q1A7N1). Kind of experiment: In Vitro Canine TRPM8 Functional Assay (Ca2+ fluorescence, icilin activation). Format: cell-based. The following applies: for inhibition at 0.2 µM / % Inh @ 0.2 (μM): compound at 0.2 μM, canine TRPM8, icilin activation; for inhibition at 0.2 µM: read-out: % Inh @ 0.2; for IC50: HEK293 cells stably expressing canine TRPM8, icilin activation, eight-point dose-response, read-out: IC50. The procedure, abridged: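 Eight-point dose-response curves, each point averaging quadruplicate wells, gave EC50 or IC50. Canine TRPM8-expressing HEK293 cells, dye-loaded (Calcium 3), were pre-exposed 5 min to compound, then challenged with icilin at roughly EC80; intracellular Ca2+ read by FLIPR or FDSS fluorescence.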

Sequence of canine TRPM8 (Q1A7N1 1-1104): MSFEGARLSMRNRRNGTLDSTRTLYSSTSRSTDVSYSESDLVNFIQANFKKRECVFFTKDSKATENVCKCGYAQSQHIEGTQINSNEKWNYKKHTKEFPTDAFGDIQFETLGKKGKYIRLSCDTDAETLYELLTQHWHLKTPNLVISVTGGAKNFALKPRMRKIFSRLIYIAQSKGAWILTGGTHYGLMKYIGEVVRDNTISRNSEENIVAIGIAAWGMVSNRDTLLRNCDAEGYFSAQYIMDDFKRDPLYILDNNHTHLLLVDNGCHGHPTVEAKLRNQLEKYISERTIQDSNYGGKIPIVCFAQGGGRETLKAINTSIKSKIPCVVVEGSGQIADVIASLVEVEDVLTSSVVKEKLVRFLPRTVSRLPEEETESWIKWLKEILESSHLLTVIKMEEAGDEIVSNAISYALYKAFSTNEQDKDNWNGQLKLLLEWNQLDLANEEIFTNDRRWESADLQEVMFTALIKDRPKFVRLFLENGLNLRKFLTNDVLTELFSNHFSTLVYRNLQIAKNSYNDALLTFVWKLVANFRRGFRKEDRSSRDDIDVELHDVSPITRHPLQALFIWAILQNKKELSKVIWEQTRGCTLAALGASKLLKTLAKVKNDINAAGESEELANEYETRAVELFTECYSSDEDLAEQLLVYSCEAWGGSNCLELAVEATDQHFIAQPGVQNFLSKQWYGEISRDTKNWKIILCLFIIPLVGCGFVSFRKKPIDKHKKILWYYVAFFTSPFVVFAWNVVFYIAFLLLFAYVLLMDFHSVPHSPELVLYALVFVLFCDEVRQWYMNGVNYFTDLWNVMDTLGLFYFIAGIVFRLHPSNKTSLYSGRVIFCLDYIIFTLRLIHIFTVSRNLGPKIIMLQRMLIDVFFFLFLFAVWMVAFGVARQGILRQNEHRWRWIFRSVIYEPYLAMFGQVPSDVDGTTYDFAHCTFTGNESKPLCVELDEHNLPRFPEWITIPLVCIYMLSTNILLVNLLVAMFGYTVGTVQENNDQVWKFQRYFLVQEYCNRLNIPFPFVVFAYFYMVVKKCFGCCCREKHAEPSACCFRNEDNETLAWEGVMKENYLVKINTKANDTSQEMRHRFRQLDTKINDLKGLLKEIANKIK

Turning to `N#Cc1cccc(S(=O)(=O)N(CCC2CC2)c2cc3ccccc3s2)c1` [Compound 575, N-(Benzo[b]thiophen-2-yl)-N-(2-cyclopropyl-ethyl)-3-cyano-benzenesulfonamide], the inhibition at 0.2 µM is 15%.
Broadly, the IC50 is the midpoint of a concentration-inhibition curve. For the molecule `O=S(=O)(c1cccc(-c2nnn[nH]2)c1)N(Cc1ccc(F)c(C(F)(F)F)c1)c1sc2ccccc2c1Br` [Compound 576, N-(3-Bromo-benzo[b]thiophen-2-yl)-N-(4-fluoro-3-trifluoromethyl-benzyl)-3-(1H-tetrazol-5-yl)-benzenesulfonamide], the IC50 is 19.1 nM and the inhibition at 0.2 µM is 100%.
In the same order, the values of `O=S1(=O)C(N(CCC2CC2)S(=O)(=O)c2ccccc2)=C(Br)c2ccccc21` [Compound 577, N-(3-Bromo-1,1-dioxo-1H-benzo[b]thiophen-2-yl)-N-(2-cyclopropylethyl)-benzenesulfonamide] are 7.8 nM and 101%.
In the same order, the values of `O=S(=O)(c1cccc(-c2nnn[nH]2)c1)N(Cc1ccc(F)c(C(F)(F)F)c1)c1sc2ccccc2c1Cl` [Compound 578, N-(3-Chloro-benzo[b]thiophen-2-yl)-N-(4-fluoro-3-trifluoromethyl-benzyl)-3-(1H-tetrazol-5-yl)-benzenesulfonamide] are 26.7 nM and 91%.
For `O=S(=O)(c1ccc(-c2nnn[nH]2)cc1)N(CCCCC(F)(F)F)c1sc2ccccc2c1Br` [Compound 579, N-(3-Bromo-benzo[b]thiophen-2-yl)-N-(5,5,5-trifluoro-pentyl)-4-(1H-tetrazol-5-yl)-benzenesulfonamide], the inhibition at 0.2 µM was 102%.
Consider `O=S(=O)(c1ccc(-c2nnn[nH]2)cc1)N(CCCCC(F)(F)F)c1sc2ccccc2c1Cl` [Compound 580, N-(3-Chloro-benzo[b]thiophen-2-yl)-N-(5,5,5-trifluoro-pentyl)-4-(1H-tetrazol-5-yl)-benzenesulfonamide], for which the IC50 was determined as 22.1 nM and the inhibition at 0.2 µM was determined as 101%.
Take `O=S1NC(c2ccc(S(=O)(=O)N(CCCCC(F)(F)F)c3sc4ccccc4c3Br)cc2)=NO1` (stereo not drawn) [Compound 581, N-(3-Bromo-benzo[b]thiophen-2-yl)-N-(5,5,5-trifluoro-pentyl)-4-(3H-[1,2,3,5]oxathiadiazole-2-oxide)-benzenesulfonamide]: the IC50 was found to be 25.1 nM and the “% Inh @ 0.2 (μM)” value amounted to 100%.
For `O=S1NC(c2ccc(S(=O)(=O)N(CCCCC(F)(F)F)c3sc4ccccc4c3Cl)cc2)=NO1` (stereo not drawn) [Compound 582, N-(3-Chloro-benzo[b]thiophen-2-yl)-N-(5,5,5-trifluoro-pentyl)-4-(3H-[1,2,3,5]oxathiadiazole-2-oxide)-benzenesulfonamide], in that order: 50.3 nM and 96%.
Regarding `O=c1[nH]c(-c2ccc(S(=O)(=O)N(CCCCC(F)(F)F)c3sc4ccccc4c3Br)cc2)no1` [Compound 583, N-(3-Bromo-benzo[b]thiophen-2-yl)-N-(5,5,5-trifluoro-pentyl)-4-(5-oxo-4,5-dihydro-[1,2,4]oxadiazol-3-yl)-benzenesulfonamide], the inhibition at 0.2 µM was 100%.
Consider `O=c1[nH]c(-c2ccc(S(=O)(=O)N(CCCCC(F)(F)F)c3sc4ccccc4c3Cl)cc2)no1` [Compound 584, N-(3-Chloro-benzo[b]thiophen-2-yl)-N-(5,5,5-trifluoro-pentyl)-4-(5-oxo-4,5-dihydro-[1,2,4]oxadiazol-3-yl)-benzenesulfonamide], for which the 50% inhibitory concentration (IC50) amounted to 15.9 nM and the inhibition at 0.2 µM was determined as 100%.
Turning to `Nc1ccc(S(=O)(=O)N(CCC(F)(F)F)c2sc3ccccc3c2Cl)cc1` [Compound 585, 4-Amino-N-(3-chloro-benzo[b]thiophen-2-yl)-N-(3,3,3-trifluoro-propyl)-benzenesulfonamide], the IC50 came out at 6.4 nM and the inhibition at 0.2 µM amounted to 101%.
In the case of `Nc1ccc(S(=O)(=O)N(CCC(F)(F)F)c2cc3ccccc3s2)cc1Cl` [Compound 586, 4-Amino-N-(benzo[b]thiophen-2-yl)-3-chloro-N-(3,3,3-trifluoro-propyl)-benzenesulfonamide], the IC50 was 34.6 nM and the inhibition at 0.2 µM is 100%.
For `Nc1ccc(S(=O)(=O)N(CCC(F)(F)F)c2sc3ccccc3c2Br)cc1` [Compound 587, 4-Amino-N-(3-bromo-benzo[b]thiophen-2-yl)-N-(3,3,3-trifluoro-propyl)-benzenesulfonamide], in that order: 3.9 nM and 100%.
For `Nc1ccc(S(=O)(=O)N(CCC(F)(F)F)c2sc3ccccc3c2Br)cc1Br` [Compound 588, 4-Amino-3-bromo-N-(3-bromo-benzo[b]thiophen-2-yl)-N-(3,3,3-trifluoro-propyl)-benzenesulfonamide], in that order: 12.1 nM and 101%.
For `Cc1c(N(CCC2CC2)S(=O)(=O)c2ccc(C(=O)O)cc2F)sc2ccccc12` [Compound 589, N-(3-Methyl-benzo[b]thiophen-2-yl)-N-(2-cyclopropyl-ethyl)-2-fluoro-4-carboxy-benzenesulfonamide], in that order: 4.2 nM and 100%.
As for `Cc1c(N(CCC(F)(F)F)S(=O)(=O)c2ccc(C(=O)O)cc2F)sc2ccccc12` [Compound 590, N-(3-Methyl-benzo[b]thiophen-2-yl)-N-(3,3,3-trifluoro-propyl)-2-fluoro-4-carboxy-benzenesulfonamide], the IC50 was found to be 6.1 nM and the inhibition at 0.2 µM amounted to 101%.
In the same order, the values of `Cc1c(N(CCCCC(F)(F)F)S(=O)(=O)c2ccc(C(=O)O)cc2F)sc2ccccc12` [Compound 591, N-(3-Methyl-benzo[b]thiophen-2-yl)-N-(5,5,5-trifluoro-pentyl)-2-fluoro-4-carboxy-benzenesulfonamide] are 4.2 nM and 101%.
Consider `Cc1c(N(Cc2ccc(F)c(C(F)(F)F)c2)S(=O)(=O)c2ccc(C(=O)O)cc2F)sc2ccccc12` [Compound 592, N-(3-Methyl-benzo[b]thiophen-2-yl)-N-(4-fluoro-3-trifluoromethyl-benzyl)-2-fluoro-4-carboxy-benzenesulfonamide], for which the IC50 is 1.8 nM and the inhibition at 0.2 µM was 101%.
In the same order, the values of `CCCCN(c1sc2ccccc2c1C)S(=O)(=O)c1ccc(C(=O)O)cc1F` [Compound 593, N-(3-Methyl-benzo[b]thiophen-2-yl)-N-(butyl)-2-fluoro-4-carboxy-benzenesulfonamide] are 7.6 nM and 101%.
Regarding `O=S(=O)(c1ccc(-c2nnn[nH]2)cc1)N(CCC1CC1)c1sc2ccccc2c1Br` [Compound 594, N-(3-Bromo-benzo[b]thiophen-2-yl)-N-(2-cyclopropyl-ethyl)-4-(1H-tetrazol-5-yl)-benzenesulfonamide], the inhibition at 0.2 µM came to 101%.
For the molecule `O=S(=O)(c1ccc(-c2nnn[nH]2)cc1)N(CCC(F)(F)F)c1sc2ccccc2c1Br` [Compound 595, N-(3-Bromo-benzo[b]thiophen-2-yl)-N-(3,3,3-trifluoro-propyl)-4-(1H-tetrazol-5-yl)-benzenesulfonamide], the inhibition at 0.2 µM came to 101%.
Regarding `O=S1NC(c2ccc(S(=O)(=O)N(CCC(F)(F)F)c3cc4ccccc4s3)cc2)=NO1` (stereo not drawn) [Compound 596, N-(Benzo[b]thiophen-2-yl)-N-(3,3,3-trifluoro-propyl)-4-(3H-[1,2,3,5]oxathiadiazole-2-oxide)-benzenesulfonamide], the “% Inh @ 0.2 (μM)” value turned out to be 17%.
In the case of `Cc1c(N(CCC(F)(F)F)S(=O)(=O)c2ccc(C3=NOS(=O)N3)cc2)sc2ccccc12` (stereo not drawn) [Compound 598, N-(3-Methyl-benzo[b]thiophen-2-yl)-N-(3,3,3-trifluoro-propyl)-4-(3H-[1,2,3,5]oxathiadiazole-2-oxide)-benzenesulfonamide], the IC50 turned out to be 30.7 nM and the “% Inh @ 0.2 (μM)” value is recorded as 101%.
`Cc1c(N(CCC(F)(F)F)S(=O)(=O)c2ccc(-c3noc(=O)[nH]3)cc2)sc2ccccc12` [Compound 599, N-(3-Methyl-benzo[b]thiophen-2-yl)-N-(3,3,3-trifluoro-propyl)-4-(5-oxo-4,5-dihydro-[1,2,4]oxadiazol-3-yl)-benzenesulfonamide]: the IC50 turned out to be 16.1 nM and the inhibition at 0.2 µM stood at 101%.
For `COC(=O)CCS(=O)(=O)N(CCC1CC1)c1sc2ccccc2c1C` [Compound 600, N-(2-Cyclopropyl-ethyl)-N-(3-methyl-benzo[b]thiophen-2-yl)-2-carbomethoxy-ethanesulfonamide], in that order: 8.9 nM and 101%.
On to `COC(=O)CCS(=O)(=O)N(CCC(F)(F)F)c1sc2ccccc2c1C` [Compound 601, N-(3-Methyl-benzo[b]thiophen-2-yl)-N-(3,3,3-trifluoro-propyl)-2-carbomethoxy-ethanesulfonamide], for which the inhibition at 0.2 µM worked out at 100%.
As to `COC(=O)CCS(=O)(=O)N(CCCC(F)(F)F)c1sc2ccccc2c1C` [Compound 602, N-(3-Methyl-benzo[b]thiophen-2-yl)-N-(4,4,4-trifluoro-butyl)-2-carbomethoxy-ethanesulfonamide], the IC50 came out at 22.1 nM and the inhibition at 0.2 µM was 101%.
In the case of `COC(=O)CCS(=O)(=O)N(CCCCC(F)(F)F)c1sc2ccccc2c1C` [Compound 603, N-(3-Methyl-benzo[b]thiophen-2-yl)-N-(5,5,5-trifluoro-pentyl)-2-carbomethoxy-ethanesulfonamide], the IC50 worked out at 10.3 nM and the inhibition at 0.2 µM amounted to 101%.
Regarding `Cc1c(N(CCC(F)(F)F)S(=O)(=O)CCC(=O)O)sc2ccccc12` [Compound 604, N-(3-Methyl-benzo[b]thiophen-2-yl)-N-(3,3,3-trifluoro-propyl)-2-carboxy-ethanesulfonamide], the inhibition at 0.2 µM turned out to be 13%.
Still for that read-out and setting: with `Cc1c(N(CCCC(F)(F)F)S(=O)(=O)CCC(=O)O)sc2ccccc12` [Compound 605, N-(3-Methyl-benzo[b]thiophen-2-yl)-N-(4,4,4-trifluoro-butyl)-2-carboxy-ethanesulfonamide] the figure was 18%.
